Reference: patent US20250270213A1, “PI3Ka INHIBITORS” (Synnovation Therapeutics, Inc., priority 2022, published 2025)

System: T47D (PIK3CA H1047R) cells
Test: pS473 AKT assay with 2.5% FBS, T47D cells
Format: cell-based
Details: Homo sapiens, pSer473 AKT, DMEM with 2.5% FBS, 2 h treatment, read-out: T47D_IC50
In short: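 In-cell chemiluminescent ELISA of AKT Ser473 phosphorylation, using anti-pSer473 primary and HRP secondary antibodies on fixed cells. T47D (PIK3CA H1047R) cells had 2 h of compound treatment in DMEM containing 2.5% FBS; IC50 derived from dose-response.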

| SMILES | IC50 |
| --- | --- |
| Cc1cc(C(C)Nc2ccc(Cl)nc2-c2ccc(C#N)cc2F)c2c(c1)c(=O)n(C)c1c(C(=O)N(C)C)ncn21 (stereo not drawn) [Compound 125, 9-(1-((6-chloro-2-(4-cyano-2-fluorophenyl)pyridin-3-yl)amino)ethyl)-N,N,4,7-tetramethyl-5-oxo-4,5-dihydroimidazo[1,5-a]quinazoline-3-carboxamide] | < 1000 nM |
| Cc1cc(C(C)Nc2ccc(Cl)nc2-c2ccc(C#N)cc2)c2c(c1)c(=O)n(C)c1c(C(=O)N(C)C)ncn21 (stereo not drawn) [Compound 126, 9-(1-((6-chloro-2-(4-cyanophenyl)pyridin-3-yl)amino)ethyl)-N,N,4,7-tetramethyl-5-oxo-4,5-dihydroimidazo[1,5-a]quinazoline-3-carboxamide] | < 1000 nM |
| Cc1cc(C(C)Nc2ccc(Cl)nc2N2CCOCC2)c2c(c1)c(=O)n(C)c1c(C(=O)N(C)C)ncn21 (stereo not drawn) [Compound 127, 9-(1-((6-chloro-2-morpholinopyridin-3-yl)amino)ethyl)-N,N,4,7-tetramethyl-5-oxo-4,5-dihydroimidazo[1,5-a]quinazoline-3-carboxamide] | < 1000 nM |
| Cc1cc(C(C)Nc2ccc(F)cc2-c2cnn(C)c2)c2c(c1)c(=O)n(C)c1c(C(=O)N(C)C)ncn21 (stereo not drawn) [Compound 128, 9-(1-((4-fluoro-2-(1-methyl-1H-pyrazol-4-yl)phenyl)amino)ethyl)-N,N,4,7-tetramethyl-5-oxo-4,5-dihydroimidazo[1,5-a]quinazoline-3-carboxamide] | < 1000 nM |
| Cc1cc(C(C)Nc2ccc(Cl)nc2-c2cnn(C)c2C)c2c(c1)c(=O)n(C)c1c(C(=O)N(C)C)ncn21 (stereo not drawn) [Compound 129, 9-(1-((6-chloro-2-(1,5-dimethyl-1H-pyrazol-4-yl)pyridin-3-yl)amino)ethyl)-N,N,4,7-tetramethyl-5-oxo-4,5-dihydroimidazo[1,5-a]quinazoline-3-carboxamide] | < 1000 nM |
| Cc1cc(C(C)Nc2ccc(Cl)nc2-c2cn(C)nc2C)c2c(c1)c(=O)n(C)c1c(C(=O)N(C)C)ncn21 (stereo not drawn) [Compound 130, 9-(1-((6-chloro-2-(1,3-dimethyl-1H-pyrazol-4-yl)pyridin-3-yl)amino)ethyl)-N,N,4,7-tetramethyl-5-oxo-4,5-dihydroimidazo[1,5-a]quinazoline-3-carboxamide] | < 1000 nM |
| Cc1cc(C(C)Nc2ccc(Cl)nc2-c2ncn(C)n2)c2c(c1)c(=O)n(C)c1c(C3CCN(C)CC3)ncn21 (stereo not drawn) [Compound 131, 9-(1-((6-Chloro-2-(1-methyl-1H-1,2,4-triazol-3-yl)pyridin-3-yl)amino)ethyl)-4,7-dimethyl-3-(1-methylpiperidin-4-yl) imidazo[1,5-a]quinazolin-5(4H)-one] | < 1000 nM |
| CC(=O)N1CCC(c2ncn3c4c(C(C)Nc5ccc(Cl)nc5-c5ncn(C)n5)cc(C)cc4c(=O)n(C)c23)CC1 (stereo not drawn) [Compound 132, 3-(1-Acetylpiperidin-4-yl)-9-(1-((6-chloro-2-(1-methyl-1H-1,2,4-triazol-3-yl)pyridin-3-yl)amino)ethyl)-4,7-dimethylimidazo[1,5-a]quinazolin-5(4H)-one] | < 1000 nM |
| CCOC(=O)N1CCC(c2ncn3c4c(C(C)Nc5ccc(Cl)nc5-c5ncn(C)n5)cc(C)cc4c(=O)n(C)c23)CC1 (stereo not drawn) [Compound 133, ethyl 4-(9-(1-((6-chloro-2-(1-methyl-1H-1,2,4-triazol-3-yl)pyridin-3-yl)amino)ethyl)-4,7-dimethyl-5-oxo-4,5-dihydroimidazo[1,5-a]quinazolin-3-yl)piperidine-1-carboxylate] | < 1000 nM |
| Cc1cc(C(C)Nc2ccc(Cl)nc2-c2cnn(C)c2)c2c(c1)c(=O)n(C)c1c(C3CCN(C)CC3)ncn21 (stereo not drawn) [Compound 134, 9-(1-((6-Chloro-2-(1-methyl-1H-pyrazol-4-yl)pyridin-3-yl)amino)ethyl)-4,7-dimethyl-3-(1-methylpiperidin-4-yl) imidazo[1,5-a]quinazolin-5(4H)-one] | < 1000 nM |
| Cc1cc(C(C)Nc2ccc(Cl)nc2-c2cnn(C)c2)c2c(c1)c(=O)n(C)c1c2cnn1C1CCN(C)C1 (stereo not drawn) [Compound 135, 9-(1-((6-Chloro-2-(1-methyl-1H-pyrazol-4-yl)pyridin-3-yl)amino)ethyl)-4,7-dimethyl-3-(1-methylpyrrolidin-3-yl)-3,4-dihydro-5H-pyrazolo[3,4-c]isoquinolin-5-one] | < 1000 nM |
| Cc1cc(C(C)Nc2ccc(Cl)nc2-c2ncn(C)n2)c2c(c1)c(=O)n(C)c1c2cnn1C1CCN(C)C1 (stereo not drawn) [Compound 136, 9-(1-((6-chloro-2-(1-methyl-1H-1,2,4-triazol-3-yl)pyridin-3-yl)amino)ethyl)-4,7-dimethyl-3-(1-methylpyrrolidin-3-yl)-3,4-dihydro-5H-pyrazolo[3,4-c]isoquinolin-5-one] | < 1000 nM |
| CCN1CCC(n2ncc3c4c(C(C)Nc5ccc(Cl)nc5-c5ncn(C)n5)cc(C)cc4c(=O)n(C)c32)C1 (stereo not drawn) [Compound 137, 9-(1-((6-chloro-2-(1-methyl-1H-1,2,4-triazol-3-yl)pyridin-3-yl)amino)ethyl)-3-(1-ethylpyrrolidin-3-yl)-4,7-dimethyl-3,4-dihydro-5H-pyrazolo[3,4-c]isoquinolin-5-one] | < 1000 nM |
| Cc1cc(C(C)Nc2ccc(Cl)nc2-c2ncn(C)n2)c2c(c1)c(=O)n(C)c1c2cnn1C1CCN(CCO)C1 (stereo not drawn) [Compound 138, 9-(1-((6-chloro-2-(1-methyl-1H-1,2,4-triazol-3-yl)pyridin-3-yl)amino)ethyl)-3-(1-(2-hydroxyethyl)pyrrolidin-3-yl)-4,7-dimethyl-3,4-dihydro-5H-pyrazolo[3,4-c]isoquinolin-5-one] | < 1000 nM |
| [2H]C([2H])([2H])n1c(=O)c2cc(C)cc(C(C)Nc3ccc(Cl)nc3-c3nnn(C)n3)c2c2cnn(C3CCN(C)C3)c21 (stereo not drawn) [Compound 139, 9-(1-((6-chloro-2-(2-methyl-2H-tetrazol-5-yl)pyridin-3-yl)amino)ethyl)-7-methyl-4-(methyl-d3)-3-(1-methylpyrrolidin-3-yl)-3,4-dihydro-5H-pyrazolo[3,4-c]isoquinolin-5-one] | < 1000 nM |

Next, values leading:

| IC50 | SMILES |
| --- | --- |
| < 1000 nM | [2H]C([2H])([2H])n1c(=O)c2cc(C)cc(C(C)Nc3ccc(Cl)nc3-c3cnn(C)c3)c2c2cnn(C3CCN(CCO)C3)c21 (stereo not drawn) [Compound 140, 9-(1-((6-chloro-2-(1-methyl-1H-pyrazol-4-yl)pyridin-3-yl)amino)ethyl)-3-(1-(2-hydroxyethyl)pyrrolidin-3-yl)-7-methyl-4-(methyl-d3)-3,4-dihydro-5H-pyrazolo[3,4-c]isoquinolin-5-one] |
| < 1000 nM | Cc1cc(C(C)Nc2ccc(Cl)nc2-c2ccncc2F)c2c(c1)c(=O)n(C)c1c2cnn1C1CCN(C(C)C)C1 (stereo not drawn) [Compound 141, 9-(1-((6-chloro-3′-fluoro-[2,4′-bipyridin]-3-yl)amino)ethyl)-3-(1-isopropylpyrrolidin-3-yl)-4,7-dimethyl-3,4-dihydro-5H-pyrazolo[3,4-c]isoquinolin-5-one] |
| < 1000 nM | Cc1cc(C(C)Nc2ccc(Cl)nc2-c2cnn(C)c2)c2c(c1)c(=O)n(C)c1c2cnn1C1CCN(CC(F)F)C1 (stereo not drawn) [Compound 142, 9-(1-((6-Chloro-2-(1-methyl-1H-pyrazol-4-yl)pyridin-3-yl)amino)ethyl)-3-(1-(2,2-difluoroethyl)pyrrolidin-3-yl)-4,7-dimethyl-3,4-dihydro-5H-pyrazolo[3,4-c]isoquinolin-5-one] |
| < 1000 nM | [2H]C([2H])([2H])n1c(=O)c2cc(C)cc(C(C)Nc3ccc(Cl)nc3-c3cnn(C)c3)c2c2cnn(C3CCN(CC(F)F)C3)c21 (stereo not drawn) [Compound 143, 9-(1-((6-chloro-2-(1-methyl-1H-pyrazol-4-yl)pyridin-3-yl)amino)ethyl)-3-(1-(2,2-difluoroethyl)pyrrolidin-3-yl)-7-methyl-4-(methyl-d3)-3,4-dihydro-5H-pyrazolo[3,4-c]isoquinolin-5-one] |
| < 1000 nM | [2H]C([2H])([2H])n1c(=O)c2cc(C)cc(C(C)Nc3ccc(Cl)nc3-c3cnn(C)c3)c2c2cnn(C3CCN(CC#N)C3)c21 (stereo not drawn) [Compound 144, 2-(3-(9-(1-((6-chloro-2-(1-methyl-1H-pyrazol-4-yl)pyridin-3-yl)amino)ethyl)-7-methyl-4-(methyl-d3)-5-oxo-4,5-dihydro-3H-pyrazolo[3,4-c]isoquinolin-3-yl)pyrrolidin-1-yl)acetonitrile] |
| < 1000 nM | CCn1c(=O)c2cc(C)cc(C(C)Nc3ccc(Cl)nc3-c3ncn(C)n3)c2c2cnn(C3CCN(CCO)C3)c21 (stereo not drawn) [Compound 145, 9-(1-((6-Chloro-2-(1-methyl-1H-1,2,4-triazol-3-yl)pyridin-3-yl)amino)ethyl)-4-ethyl-3-(1-(2-hydroxyethyl)pyrrolidin-3-yl)-7-methyl-3,4-dihydro-5H-pyrazolo[3,4-c]isoquinolin-5-one] |
| < 1000 nM | CCn1c(=O)c2cc(C)cc(C(C)Nc3ccc(Cl)nc3-c3ncn(C)n3)c2c2cnn(C3CCN(CC(C)(C)O)C3)c21 (stereo not drawn) [Compound 146, 9-(1-((6-chloro-2-(1-methyl-1H-1,2,4-triazol-3-yl)pyridin-3-yl)amino)ethyl)-4-ethyl-3-(1-(2-hydroxy-2-methylpropyl)pyrrolidin-3-yl)-7-methyl-3,4-dihydro-5H-pyrazolo[3,4-c]isoquinolin-5-one] |
| < 1000 nM | CCn1c(=O)c2cc(C)cc(C(C)Nc3ccc(Cl)nc3-c3ncn(C)n3)c2c2cnn(C3CCN(C(C)C)C3)c21 (stereo not drawn) [Compound 147, 9-(1-((6-chloro-2-(1-methyl-1H-1,2,4-triazol-3-yl)pyridin-3-yl)amino)ethyl)-4-ethyl-3-(1-isopropylpyrrolidin-3-yl)-7-methyl-3,4-dihydro-5H-pyrazolo[3,4-c]isoquinolin-5-one] |
| < 1000 nM | CCn1c(=O)c2cc(C)cc(C(C)Nc3ccc(Cl)nc3-c3ncn(C)n3)c2c2cnn(C3CCN(S(C)(=O)=O)C3)c21 (stereo not drawn) [Compound 148, 9-(1-((6-Chloro-2-(1-methyl-1H-1,2,4-triazol-3-yl)pyridin-3-yl)amino)ethyl)-4-ethyl-7-methyl-3-(1-(methylsulfonyl)pyrrolidin-3-yl)-3,4-dihydro-5H-pyrazolo[3,4-c]isoquinolin-5-one] |
